Each structure is given as a SMILES string. Activity calls are given as the source filed them. The calls are words filed in the database; no cut-off is given here.

A short description of series [1]: Stability of the compound in physiological conditions at pH > 7. The format is physicochemical.
Series [2] concerns P388. Nature of the series: Cytotoxicity against mouse P388 cells after 4 days by MTT assay. The series is classed as functional, cell-based. The conditions noted are these: P388, 96 h. A general note: Tetrazolium dyes change colour on reduction, which living cells bring about.
A short description of series [3]: Metal chelating activity assessed as compound-Fe3+ complex formation after 1 hr by LC/MS analysis.
Series [4] relates to P388. Nature of the series: Cytotoxicity against mouse P388 cells up to 100 uM after 4 days by MTT assay. The series is classed as functional, cell-based.

A word on the IC50: it is the point on the concentration scale where inhibition reaches its midpoint. A low value points to higher potency. Turning to `C[C@H]1OC(c2ccccc2O)=N[C@@H]1C(=O)N[C@H](CCCN(O)C(=O)[C@H]1N=C(c2ccccc2O)O[C@@H]1C)C(=O)O`, the Stability entry in series [1] is “Unstable”. Also, half-maximal inhibition in series [2] (IC50) was put at 22.4 µM. Also, the result in series [3] was Active.
As for `C[C@@H]1ON(CCC[C@@H](NC(=O)[C@H]2N=C(c3ccccc3O)O[C@@H]2C)C(=O)O)C(=O)[C@H]1NC(=O)c1ccccc1O`, the result in series [4] and in series [3] was inactive.
